In ChEMBL document CHEMBL1201862, “PubChem BioAssay data set” (2004):
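These data come from cells grown in 96-well plates and exposed to compound for 48 hours at five concentrations. Abbreviation: GI50, concentration required for 50% inhibition of growth.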 Activity calls are given as the source filed them. Rule as the data show it: active = GI50 up to about 1.1 µM and inactive = higher.

Experiments:
Assay in all cases: inhibition of tumour cell growth, NCI panel, 48 h
LOX IMVI = system: LOX IMVI
HOP-62 = system: HOP-62
SF-539 = system: SF-539
CAKI-1 = system: CAKI-1
A549 = system: A549
COLO 205 = system: COLO 205
HOP-92 = system: HOP-92
SW-620 = system: SW-620
HCT-15 = system: HCT-15
NCI-H460 = system: NCI-H460
A498 = system: A498
NCI-H522 = system: NCI-H522
SF-268 = system: SF-268
K562 = system: K562
HL-60 = system: HL-60
MDA-N = system: MDA-N
HCC 2998 = system: HCC 2998
NCI-H23 = system: NCI-H23
IGROV-1 = system: IGROV-1
HCT-116 = system: HCT-116
M14 = system: M14
MCF7 = system: MCF7
SK-MEL-2 = system: SK-MEL-2
UO-31 = system: UO-31
786-0 = system: 786-0
Hs-578T = system: Hs-578T
EKVX = system: EKVX
U-251 = system: U-251
OVCAR-3 = system: OVCAR-3
MDA-MB-231 = system: MDA-MB-231
T47D = system: T47D
OVCAR-5 = system: OVCAR-5
SNB-19 = system: SNB-19
DU-145 = system: DU-145
SN12C = system: SN12C
UACC-257 = system: UACC-257
SK-OV-3 = system: SK-OV-3
Malme-3M = system: Malme-3M
TK-10 = system: TK-10
MDA-MB-435 = system: MDA-MB-435
RPMI-8226 = system: RPMI-8226
BT-549 = system: BT-549
SF-295 = system: SF-295
SNB-75 = system: SNB-75
NCI-H226 = system: NCI-H226
KM12 = system: KM12
ACHN = system: ACHN
CCRF-CEM = system: CCRF-CEM
MOLT-4 = system: MOLT-4
SK-MEL-5 = system: SK-MEL-5
OVCAR-8 = system: OVCAR-8
SR = system: SR
UACC-62 = system: UACC-62
PC-3 = system: PC-3
NCI/ADR-RES = system: NCI/ADR-RES
SK-MEL-28 = system: SK-MEL-28
OVCAR-4 = system: OVCAR-4
HT-29 = system: HT-29
RXF 393 = system: RXF 393

Measured: GI50

CC(C)(C)c1cc(C(C)(C)C)c(P=C(Cl)Cl)c(C(C)(C)C)c1 (stereo not given)
> 100 µM: HCT-15
active: K562 0.0478 µM
inactive: LOX IMVI > 100 µM | HOP-62 > 100 µM | SF-539 > 100 µM | CAKI-1 > 100 µM | A549 > 100 µM | COLO 205 > 100 µM | HOP-92 > 100 µM | SW-620 > 100 µM | NCI-H460 > 100 µM | A498 > 100 µM | NCI-H522 > 100 µM | SF-268 > 100 µM | HL-60 > 100 µM | MDA-N > 100 µM | HCC 2998 > 100 µM | NCI-H23 > 100 µM | IGROV-1 > 100 µM | HCT-116 > 100 µM | M14 > 100 µM | MCF7 > 100 µM | SK-MEL-2 > 100 µM | UO-31 > 100 µM | 786-0 > 100 µM | Hs-578T > 100 µM | EKVX > 100 µM | U-251 > 100 µM | OVCAR-3 > 100 µM | MDA-MB-231 > 100 µM | T47D > 100 µM | OVCAR-5 > 100 µM | SNB-19 > 100 µM | DU-145 > 100 µM | SN12C > 100 µM | UACC-257 > 100 µM | SK-OV-3 > 100 µM | Malme-3M > 100 µM | TK-10 > 100 µM | MDA-MB-435 > 100 µM | RPMI-8226 > 100 µM | BT-549 > 100 µM | SF-295 > 100 µM | SNB-75 > 100 µM | NCI-H226 > 100 µM | KM12 > 100 µM | ACHN > 100 µM | CCRF-CEM > 100 µM | MOLT-4 > 100 µM | SK-MEL-5 > 100 µM | OVCAR-8 > 100 µM | SR > 100 µM | UACC-62 > 100 µM | PC-3 > 100 µM | NCI/ADR-RES > 100 µM | SK-MEL-28 > 100 µM | OVCAR-4 > 100 µM | HT-29 > 100 µM

Cc1cc(N(C)C)ccc1/N=N/c1ccc2ncccc2c1
40.6 µM: HCT-15
inactive: SF-539 > 100 µM | CAKI-1 > 100 µM | A549 > 100 µM | COLO 205 33.9 µM | HOP-92 > 100 µM | SW-620 > 100 µM | NCI-H460 27.4 µM | NCI-H522 13.3 µM | SF-268 > 100 µM | K562 29.8 µM | HL-60 19.9 µM | MDA-N > 100 µM | NCI-H23 59.3 µM | IGROV-1 86.3 µM | HCT-116 59.7 µM | M14 > 100 µM | MCF7 20.3 µM | SK-MEL-2 > 100 µM | UO-31 > 100 µM | 786-0 > 100 µM | Hs-578T 30.6 µM | EKVX 23.6 µM | U-251 > 100 µM | MDA-MB-231 84.1 µM | T47D 16.9 µM | OVCAR-5 > 100 µM | SNB-19 28.9 µM | DU-145 > 100 µM | SN12C > 100 µM | UACC-257 98.4 µM | SK-OV-3 > 100 µM | Malme-3M 62.4 µM | TK-10 25.6 µM | MDA-MB-435 > 100 µM | RPMI-8226 20.2 µM | BT-549 35.2 µM | SF-295 > 100 µM | SNB-75 25.4 µM | NCI-H226 31.8 µM | KM12 66.7 µM | ACHN > 100 µM | CCRF-CEM 40 µM | MOLT-4 16.8 µM | RXF 393 > 100 µM | SK-MEL-5 17.2 µM | OVCAR-8 > 100 µM | SR 44.4 µM | UACC-62 > 100 µM | PC-3 59.2 µM | NCI/ADR-RES > 100 µM | HT-29 35.3 µM
